Values of other authors as cited in patent publication US20010051164A1, “1-0 ALKYLGLYCEROLS FOR PHARMACEUTICAL OR VETERINARY USE FOR PRESERVING AND/OR IMPROVING SPERM” (priority 1996, published 2001).

System: spermatozoons of various animal species and of man

1-O-alkyl-2-acetyl-sn-glycero-3-phosphocholine [PAF]
power of fertilisation of ovocytes by treated spermatozoons (ovocytes of the rabbit and of the mouse): increases their power of fertilisation
motor function of the spermatozoons (various animal species and man): increases the motor function
